According to US4902710A, “Serotonin and norepinephrine uptake inhibitors” (Eli Lilly and Company, priority 1988, dated 1990):
Where a name gives a salt, the structure may show the parent alone.

What was measured:
[1] = tested on: serotonin (5HT) uptake, cortical synaptosomes; test: Synaptosomal uptake of 3H-serotonin (3H-5HT) in rat cerebral cortex synaptosomes; assay type: biochemical, Male Sprague-Dawley rats; settings: for IC50: inhibition of 5HT uptake in vitro, concentration needed to inhibit 50%; for percent inhibition 5HT (numbers in parentheses): at 1000 nM, compounds which failed to achieve 50% inhibition by that concentration
Procedure: (§1) This general procedure is set forth by Wong et al., in Drug Development Research 6:397-403 (1985).
(§2) Male Sprague-Dawley rats (110-150 g) from Harlan Industries (Cumberland, Id.) were fed a Purina Chow ad libitum for at least 3 days before being used in the studies. Rats were killed by decapitation. Whole brains were removed and dissected. Cerebral cortex was homogenized in 9 volumes of a medium containing 0.32M sucrose and 10 mM glucose. Crude synaptosomal preparations were isolated after differential centrifugation at 1,000 g for 10 min. and 17,000 g for 28 min. The final pellets were suspended in the same medium and kept in ice until use within the same day.
(§3) Synaptosomal uptake of ^3 H-serotonin(^3 H-5-hydroxytryptamine, ^3 H-5HT) and ^14 C-l-norepinephrine (^14 C-NE) was determined as follows. Cortical synaptosomes (equivalent to 1 mg of protein) were incubated at 37° C. for 5 min in 1 ml of Krebs-bicarbonate medium containing also 10 mM glucose, 0.1 mM iproniazid, 1 mM ascorbic acid, 0.17 mM EDTA, […] and 100 nM^14 C-NE. The reaction mixture was immediately diluted with 2 ml of ice-chilled Krebs-bicarbonate buffer and filtered under vacuum with a cell harvester (Brandel, Gaithersburg, Md.). Filters were rinsed twice with approximately 5 ml of ice-chilled 0.9% saline and were transferred to a counting vial containing 10 ml of scintillation fluid (PCS, Amersham, Arlington Heights, Ill.). Radioactivity was measured by a liquid scintillation spectrophotometer. Accumulation of ^3 H-5HT and ^14 C-NE at 4° C. represented the background and was subtracted from all samples.

[2] = tested on: norepinephrine (NE) uptake, cortical synaptosomes; test: Synaptosomal uptake of 14C-l-norepinephrine (14C-NE) in rat cerebral cortex synaptosomes; assay type: biochemical, Male Sprague-Dawley rats; settings: for IC50: inhibition of norepinephrine uptake in vitro, concentration needed to inhibit 50%; for percent inhibition NE (numbers in parentheses): at 1000 nM, compounds which failed to achieve 50% inhibition by that concentration
Procedure: as §1, §2, §3

[3] = tested on: norepinephrine uptake; settings: hydrochloride; cited from earlier work
[4] = tested on: serotonin (5-hydroxytryptamine) uptake; settings: hydrochloride salt; cited from earlier work

Structure (SMILES)	IC50 [1]	IC50 [2]	percent inhibition NE (numbers in parentheses) [2]	other results
CNCCC(Sc1ccc(C)s1)c1ccccc1 (stereo not shown) [Example 7, N-Methyl-3-[(5-methyl-2-thienyl)thio]benzenepropanamine hydrochloride]	1000 nM	300 nM	–	–
CNCCC(c1ccccc1)S(=O)(=O)c1ccc(C(F)(F)F)cc1 (stereo not shown) [Example 5, N-Methyl-3-[[4-(trifluoromethyl)phenyl]sulfonyl]benzenepropanamine hydrochloride]	–	–	1%	percent inhibition 5HT (numbers in parentheses) [1]: 5%
CNCCC(Oc1ccccc1C)c1ccccc1.Cl (single isomer, unassigned; (-)) [tomoxetine hydrochloride, (-)-N-methyl-γ-(2-methylphenoxy)benzenepropanamine hydrochloride]	–	–	–	selective norepinephrine uptake inhibition (in words) [3]: selective inhibitor of norepinephrine uptake
CNCCC(Oc1ccc(C(F)(F)F)cc1)c1ccccc1 (racemic) [fluoxetine, dl-N-methyl-γ-[4-(trifluoromethyl)phenoxy]benzenepropanamine]	–	–	–	selective serotonin uptake inhibition (in words) [4]: selective serotonin (5-hydroxytryptamine) uptake inhibitor
CNCCC(Sc1cccs1)c1ccccc1 (stereo not shown) [Example 6, N-Methyl-3-(2-thienylthio)benzenepropanamine hydrochloride]	1000 nM	48 nM	–	–
CNCCC(Sc1ccccc1C)c1ccccc1 (stereo not shown) [Example 2, hydrochloride]	165 nM	80 nM	–	–
CNCCC(Sc1ccccc1OC)c1ccccc1 (stereo not shown) [Example 1, N-Methyl-3-[(2-methoxyphenyl)thio]benzenepropanamine hydrochloride]	270 nM	42 nM	–	–
CNCCC(Sc1ccc(C(F)(F)F)cc1)c1ccccc1 (stereo not shown) [Example 3, N-Methyl-3-[[4-(trifluoromethyl)phenyl]thio]benzenepropanamine hydrochloride]	110 nM	–	11%	–
CNCCC(c1ccccc1)[S+]([O-])c1ccc(C(F)(F)F)cc1 (stereo not shown) [Example 4, hydrochloride]	–	–	6%	percent inhibition 5HT (numbers in parentheses) [1]: 23%
